Measured values published in ChEMBL document CHEMBL3751791, “Alkenes with antioxidative activities from Murraya koenigii (L.) Spreng” (Bioorg Med Chem Lett, 2016).

Test: Antioxidative activity of the compound assessed as DPPH radical scavenging activity
Format: physicochemical

Point of comparison: `C=C[C@](C)(O)C[C@@H](O)/C=C(\C)[C@@H](O)CC=C(C)C`, IC50 23.5 µM. Against it:
- C=C[C@](C)(CC/C=C(\CO)CC/C=C(\C)C[C@@H](O)/C=C(\C)C(=O)O)O[C@H]1O[C@@H](CO)[C@H](O)[C@@H](O)[C@@H]1O — 1.7-fold higher, 40.2 µM
- O=C(/C=C/c1ccc(O)c(O)c1)O[C@@H]1C[C@](O)(C(=O)O)C[C@@H](O)[C@H]1O [CHLOROGENIC ACID] — 2.4-fold higher, 56.4 µM
- C=C[C@](C)(O)CC/C=C(C)/C=C/[C@@H](O[C@H]1O[C@@H](CO)[C@H](O)[C@@H](O)[C@@H]1O)C(C)(C)O — 1.6-fold higher, 38.4 µM
- CC/C=C/C[C@H](O)/C=C/[C@H](O)[C@H](O)[C@H](O)CCCCC[C@H](C)O — within 1.5-fold, 25.4 µM
